Molecules are shown by their SMILES.

The assay is described as follows: Inhibition of TCDD-induced EROD activity in human HepG2 cells after 24 hrs. Type of assay: cell-based.
In general, IC50 refers to the midpoint of a concentration-inhibition curve. The low end stands for higher potency, the high end for lower potency. The compound `CC(=O)N1/C(=C2\N=c3ccccc3=C2c2c(C3=Nc4ccccc4C3=O)[nH]c3ccccc23)C(=O)c2ccccc21` showed an IC50 of 3 µM.

Take `O=c1cc(-c2ccccc2)oc2c1ccc1ccccc12` [ALPHA-NAPHTHOFLAVONE]: it took 0.32 µM to reach half-maximal inhibition (IC50).

`O=C1C(c2[nH]c3ccccc3c2C2=c3ccccc3=N/C2=C2\Nc3ccccc3C2=O)=Nc2ccccc21` [BISINDIGOTIN] registered an IC50 of 0.8 µM.

The values are drawn from ChEMBL document CHEMBL1158711, “Bisindigotin, a TCDD antagonist from the Chinese medicinal herb Isatis indigotica” (J Nat Prod, 2005).
